Measurements reported in ChEMBL document CHEMBL1201862, “PubChem BioAssay data set” (2004).
Calls of active or inactive are those of the source.

What was measured:
CAAX prenyl protease 2 [1] = molecular target: CAAX prenyl protease 2 (Homo sapiens, UniProt Q9Y256); test: human Rce1 protease inhibitors, dose response, biochemical, yeast membranes, quenched-peptide fluorescence, cherry-pick (AID 588849)
A-375 [2] = test: A375 melanoma cell viability reduction, dose response, counter-screen for MITF modulator project, cherry-pick samples, set 2 (AID 540335); assay type: functional, cell-based; settings: Homo sapiens
A-375 [3] = test: MITF: Counter assay: A375 proliferation Measured in Cell-Based System Using Plate Reader - 2084-03_Inhibitor_Dose_DryPowder_Activity. [Related pubchem assays (depositor defined):AID488944]; assay type: functional; settings: Homo sapiens
Cysteine protease ATG4B = Cysteine protease ATG4B (Homo sapiens, UniProt Q9Y4P1); assay type: functional;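 also: Fluorescence-based dose-response confirmation assay measuring inhibition of ATG4B activity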
Sequence of Cysteine protease ATG4B (Q9Y4P1 whole entry): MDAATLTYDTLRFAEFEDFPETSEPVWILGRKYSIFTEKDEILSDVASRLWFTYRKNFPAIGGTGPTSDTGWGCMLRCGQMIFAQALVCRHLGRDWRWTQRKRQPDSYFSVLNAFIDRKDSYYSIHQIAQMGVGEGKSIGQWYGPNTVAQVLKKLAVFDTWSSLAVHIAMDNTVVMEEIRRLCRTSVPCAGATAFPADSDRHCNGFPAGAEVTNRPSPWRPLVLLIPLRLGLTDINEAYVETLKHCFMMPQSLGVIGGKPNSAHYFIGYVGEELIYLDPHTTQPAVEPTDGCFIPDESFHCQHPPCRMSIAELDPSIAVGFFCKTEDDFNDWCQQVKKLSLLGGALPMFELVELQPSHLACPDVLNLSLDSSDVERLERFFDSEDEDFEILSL

Phospholipase A2 = Phospholipase A2 (Homo sapiens, UniProt P04054); assay type: functional;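 also: confirmatory dose-response counterscreen on phospholipase A2, testing hits that came from an ultra-high-throughput screen for ATG4B inhibitors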
Sequence of Phospholipase A2 (P04054 whole entry): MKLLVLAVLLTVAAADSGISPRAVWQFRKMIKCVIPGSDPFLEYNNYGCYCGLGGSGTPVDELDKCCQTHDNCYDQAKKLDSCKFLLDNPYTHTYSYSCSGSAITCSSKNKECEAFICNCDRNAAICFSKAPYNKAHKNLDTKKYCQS

HEK293 [4] = test: cells; assay type: functional, cell-based; settings: Homo sapiens
[5] = molecular target: T1, Nuclear receptor subfamily 0 group B member 1 (Homo sapiens, UniProt P51843); test: Luminescence-based cell-based high throughput dose response assay for inhibitors of the orphan nuclear receptor subfamily 0, group B, member 1 (DAX1; NR0B1). [Related pubchem assays (depositor defined):AID504766, AID504790]; assay type: functional
T1 sequence (P51843 whole entry): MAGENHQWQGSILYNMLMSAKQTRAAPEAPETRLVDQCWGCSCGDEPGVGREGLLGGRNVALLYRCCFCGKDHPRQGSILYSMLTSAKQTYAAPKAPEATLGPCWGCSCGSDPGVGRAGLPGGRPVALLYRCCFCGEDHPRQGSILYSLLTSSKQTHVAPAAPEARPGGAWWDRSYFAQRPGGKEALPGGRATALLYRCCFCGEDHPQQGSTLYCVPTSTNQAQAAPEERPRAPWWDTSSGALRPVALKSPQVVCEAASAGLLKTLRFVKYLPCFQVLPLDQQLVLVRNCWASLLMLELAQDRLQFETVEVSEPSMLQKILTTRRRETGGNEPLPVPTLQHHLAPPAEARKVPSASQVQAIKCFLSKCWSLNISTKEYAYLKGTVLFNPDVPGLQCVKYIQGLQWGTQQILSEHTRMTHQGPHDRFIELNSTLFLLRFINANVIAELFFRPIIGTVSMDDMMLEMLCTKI

cells [6] = assay type: functional, cell-based
[7] = inhibitors of SNCA 5'UTR-driven reporter translation, confirmation, H4 neuroglioma cells, luminescence (AID 1988); assay type: functional, cell-based
[8] = molecular target: Heat shock protein HSP 90-alpha (Homo sapiens, UniProt P07900); assay type: functional, organism-based
[9] = cytotoxicity in MIN6 insulinoma cells, dose response, cytotoxicity control, cell-based, mouse insulinoma (AID 2122); assay type: functional;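 also: confirmatory high-throughput counterscreen run to flag cytotoxic compounds; mouse MIN-6 beta cells carrying an insulin promoter eGFP reporter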
[10] = inhibitors of intracellular T. cruzi replication, confirmation, NIH3T3 host cells, beta-gal luminescence (AID 2044); assay type: functional, cell-based;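 also: intracellular parasites grown in NIH/3T3 mouse fibroblasts as host cells; luminescent beta-galactosidase reporter signal from transgenic T. cruzi replicating inside host cells; inhibitors lower the luminescence signal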
[11] = insulin promoter down-regulators in MIN6 cells, imaging, high-content screening, mouse beta cells (AID 1628); assay type: functional
[12] = inhibitors of firefly luciferase expression or activity, dose response, H4 neuroglioma cells, luminescence (AID 1990); assay type: functional, cell-based
HEK293 [13] = test: inhibitors of LMP1-driven NF-kB reporter, dose response, cell-based, HEK293, luciferase, cherry-pick (AID 588343); assay type: functional; settings: Homo sapiens
cells [14] = assay type: functional, cell-based; remark: listed apart in the source
[15] = Luminescence Cell-Based Dose Response HTS to Identify Inhibitors of 5'UTR Stem-Loop Driven Prion Protein mRNA Translation in H4 Neuroglioblastoma Cells. [Related pubchem assays: 1827 (Project Summary), 1813 (Primary HTS)]; assay type: functional
[16] = molecular target: T2, Latent membrane protein 1 (Human herpesvirus 4 (strain B95-8), UniProt P03230); test: TES1-eGFP NF-kB reporter inhibition versus Tet-On dsRED, dose response, selectivity assay for LMP1 NF-kB inhibitor project, imaging, HEK293T, dual-color eGFP/dsRED, cherry-picks (AID 588398); assay type: functional, cell-based
T2 sequence (P03230 whole entry): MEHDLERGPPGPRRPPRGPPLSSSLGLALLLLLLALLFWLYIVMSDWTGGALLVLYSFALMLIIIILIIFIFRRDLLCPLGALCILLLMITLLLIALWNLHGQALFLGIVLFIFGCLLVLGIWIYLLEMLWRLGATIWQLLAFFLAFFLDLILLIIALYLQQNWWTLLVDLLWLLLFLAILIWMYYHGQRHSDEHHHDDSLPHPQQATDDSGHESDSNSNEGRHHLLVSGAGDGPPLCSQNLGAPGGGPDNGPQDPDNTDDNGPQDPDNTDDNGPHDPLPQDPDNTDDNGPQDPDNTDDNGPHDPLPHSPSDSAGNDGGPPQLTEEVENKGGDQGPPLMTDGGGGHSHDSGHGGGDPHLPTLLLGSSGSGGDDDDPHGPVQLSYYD

[17] = cytotoxicity toward NIH3T3 fibroblasts, dose response, counter-screen, cell-based, ATP luminescence, mouse fibroblasts (AID 2010); assay type: functional;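 also: cells exposed to compound for about 90 hours before reading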
CAAX prenyl protease 2 [18] = molecular target: T3, CAAX prenyl protease 2 (Saccharomyces cerevisiae S288c, UniProt Q03530); assay type: biochemical
T3 sequence (Q03530 whole entry): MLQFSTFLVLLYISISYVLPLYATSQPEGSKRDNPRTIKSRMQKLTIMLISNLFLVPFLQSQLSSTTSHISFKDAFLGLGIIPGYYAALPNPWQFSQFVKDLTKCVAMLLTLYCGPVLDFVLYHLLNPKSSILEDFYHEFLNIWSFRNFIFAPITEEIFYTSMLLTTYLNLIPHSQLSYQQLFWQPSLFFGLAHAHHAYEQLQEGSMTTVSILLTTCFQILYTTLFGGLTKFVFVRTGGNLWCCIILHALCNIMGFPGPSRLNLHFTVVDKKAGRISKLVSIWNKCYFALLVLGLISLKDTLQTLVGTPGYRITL

Trypsin = Trypsin (Sus scrofa, UniProt P00761); test: porcine trypsin inhibitors, dose response, selectivity assay for Rce1 protease inhibitor project, biochemical, quenched peptide fluorescence, cherry-pick (AID 488789)
Sequence of Trypsin (P00761 whole entry): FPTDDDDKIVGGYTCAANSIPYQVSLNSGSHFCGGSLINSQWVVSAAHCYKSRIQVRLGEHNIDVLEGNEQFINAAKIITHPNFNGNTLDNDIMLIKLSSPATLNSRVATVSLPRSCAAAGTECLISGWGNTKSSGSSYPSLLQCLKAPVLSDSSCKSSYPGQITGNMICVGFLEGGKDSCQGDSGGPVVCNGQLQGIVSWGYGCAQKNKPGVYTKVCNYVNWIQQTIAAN

[19] = molecular target: T4, Type-1 angiotensin II receptor (Homo sapiens, UniProt P30556); test: AT1 receptor antagonists, dose response, selectivity assay for APJ receptor antagonist project, cell-based, uHTS hits (AID 463214); assay type: functional;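 also: antagonist potency against angiotensin II stimulated AT1 response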
T4 sequence (P30556 whole entry): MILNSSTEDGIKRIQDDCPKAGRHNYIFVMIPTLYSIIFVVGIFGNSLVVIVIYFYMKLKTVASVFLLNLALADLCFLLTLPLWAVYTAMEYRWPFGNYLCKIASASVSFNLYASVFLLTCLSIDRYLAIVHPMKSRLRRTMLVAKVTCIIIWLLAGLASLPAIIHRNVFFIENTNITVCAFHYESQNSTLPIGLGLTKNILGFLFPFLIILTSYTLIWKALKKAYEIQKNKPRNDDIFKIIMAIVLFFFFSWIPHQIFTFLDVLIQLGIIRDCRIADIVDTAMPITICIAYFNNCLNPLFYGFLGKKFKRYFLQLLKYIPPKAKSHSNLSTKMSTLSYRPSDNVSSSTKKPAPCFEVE

[20] = ARNT/TACC3 interaction disruptors, potency, confirmation, biochemical, AlphaScreen, cherry-picked samples (AID 651703); assay type: functional, Homo sapiens;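 also: His-tagged ARNT PAS-B domain paired with GST-TACC3 E629A dimer coactivator fragment; potency of inhibitors that break up the complex and lower AlphaScreen signal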
Beta-galactosidase = Beta-galactosidase (Escherichia coli, UniProt Q8VNN2); test: PubChem AID 485352; assay type: functional
Sequence of Beta-galactosidase (Q8VNN2 whole entry): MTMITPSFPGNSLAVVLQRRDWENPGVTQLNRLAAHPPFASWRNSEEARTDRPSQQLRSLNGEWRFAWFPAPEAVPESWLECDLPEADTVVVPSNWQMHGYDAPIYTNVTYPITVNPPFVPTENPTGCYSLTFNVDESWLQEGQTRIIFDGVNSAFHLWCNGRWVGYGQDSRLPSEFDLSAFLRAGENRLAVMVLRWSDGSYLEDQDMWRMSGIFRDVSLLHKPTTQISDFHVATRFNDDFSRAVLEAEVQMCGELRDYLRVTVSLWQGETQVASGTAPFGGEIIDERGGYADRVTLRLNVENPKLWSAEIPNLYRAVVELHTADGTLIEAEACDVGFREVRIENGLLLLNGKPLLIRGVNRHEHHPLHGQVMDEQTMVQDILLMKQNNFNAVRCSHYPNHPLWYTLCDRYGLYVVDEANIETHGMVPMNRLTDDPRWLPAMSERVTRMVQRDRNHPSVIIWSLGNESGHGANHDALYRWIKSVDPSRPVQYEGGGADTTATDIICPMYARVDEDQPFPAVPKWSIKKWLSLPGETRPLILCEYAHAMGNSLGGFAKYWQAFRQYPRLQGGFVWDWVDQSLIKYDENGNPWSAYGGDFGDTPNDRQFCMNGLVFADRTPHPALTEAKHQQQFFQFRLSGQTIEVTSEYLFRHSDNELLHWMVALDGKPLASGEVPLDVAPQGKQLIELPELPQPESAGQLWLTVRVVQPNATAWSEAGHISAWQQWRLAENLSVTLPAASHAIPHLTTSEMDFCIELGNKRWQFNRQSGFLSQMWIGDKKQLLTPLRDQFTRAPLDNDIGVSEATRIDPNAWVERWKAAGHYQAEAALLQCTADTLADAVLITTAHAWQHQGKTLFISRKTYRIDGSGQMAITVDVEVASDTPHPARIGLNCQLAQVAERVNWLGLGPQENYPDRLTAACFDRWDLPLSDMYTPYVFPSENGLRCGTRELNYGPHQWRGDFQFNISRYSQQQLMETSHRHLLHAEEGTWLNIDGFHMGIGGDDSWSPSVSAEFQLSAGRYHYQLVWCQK

[21] = molecular target: Voltage-gated inwardly rectifying potassium channel KCNH2 (Homo sapiens, UniProt Q12809); settings: Potency;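 also: confirmatory quantitative high-throughput screen measuring inhibition of hERG channel activity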
Sequence of Voltage-gated inwardly rectifying potassium channel KCNH2 (Q12809 whole entry): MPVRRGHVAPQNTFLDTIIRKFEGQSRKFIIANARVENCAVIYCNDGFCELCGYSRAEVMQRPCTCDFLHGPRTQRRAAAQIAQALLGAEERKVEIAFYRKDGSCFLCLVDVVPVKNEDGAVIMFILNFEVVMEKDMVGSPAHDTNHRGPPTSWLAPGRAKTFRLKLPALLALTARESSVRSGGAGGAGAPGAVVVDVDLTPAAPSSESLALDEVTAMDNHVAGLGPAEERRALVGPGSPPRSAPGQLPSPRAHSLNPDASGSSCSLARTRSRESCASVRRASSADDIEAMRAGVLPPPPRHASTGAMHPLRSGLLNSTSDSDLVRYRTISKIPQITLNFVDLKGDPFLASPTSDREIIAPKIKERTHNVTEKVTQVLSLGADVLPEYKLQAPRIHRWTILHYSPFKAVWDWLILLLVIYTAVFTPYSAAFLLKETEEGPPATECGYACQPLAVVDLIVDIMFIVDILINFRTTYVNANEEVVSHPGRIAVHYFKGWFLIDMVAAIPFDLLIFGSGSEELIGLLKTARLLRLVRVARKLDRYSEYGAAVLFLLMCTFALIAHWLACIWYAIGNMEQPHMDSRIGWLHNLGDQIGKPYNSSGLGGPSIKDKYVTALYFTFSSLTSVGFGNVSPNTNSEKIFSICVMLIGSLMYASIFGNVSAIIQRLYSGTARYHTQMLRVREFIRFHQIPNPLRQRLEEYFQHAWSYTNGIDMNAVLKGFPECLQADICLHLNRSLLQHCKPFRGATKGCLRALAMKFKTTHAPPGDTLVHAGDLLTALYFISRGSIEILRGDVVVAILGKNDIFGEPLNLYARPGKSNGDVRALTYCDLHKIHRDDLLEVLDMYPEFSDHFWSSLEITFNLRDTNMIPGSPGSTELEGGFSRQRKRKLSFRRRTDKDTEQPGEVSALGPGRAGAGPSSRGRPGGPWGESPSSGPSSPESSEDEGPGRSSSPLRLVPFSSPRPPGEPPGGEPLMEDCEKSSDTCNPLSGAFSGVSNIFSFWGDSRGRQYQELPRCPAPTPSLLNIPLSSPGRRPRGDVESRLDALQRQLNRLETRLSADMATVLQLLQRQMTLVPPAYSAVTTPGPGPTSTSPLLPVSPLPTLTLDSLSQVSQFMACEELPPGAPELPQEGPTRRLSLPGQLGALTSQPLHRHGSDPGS

Genome polyprotein = Genome polyprotein (dengue virus type 2, UniProt P29990); test: Dengue-2 NS5 methyltransferase inhibitors, primary screen, biochemical, confirmation dose response (AID 588689); assay type: functional
Sequence of Genome polyprotein (P29990 2492-3391 limits assumed): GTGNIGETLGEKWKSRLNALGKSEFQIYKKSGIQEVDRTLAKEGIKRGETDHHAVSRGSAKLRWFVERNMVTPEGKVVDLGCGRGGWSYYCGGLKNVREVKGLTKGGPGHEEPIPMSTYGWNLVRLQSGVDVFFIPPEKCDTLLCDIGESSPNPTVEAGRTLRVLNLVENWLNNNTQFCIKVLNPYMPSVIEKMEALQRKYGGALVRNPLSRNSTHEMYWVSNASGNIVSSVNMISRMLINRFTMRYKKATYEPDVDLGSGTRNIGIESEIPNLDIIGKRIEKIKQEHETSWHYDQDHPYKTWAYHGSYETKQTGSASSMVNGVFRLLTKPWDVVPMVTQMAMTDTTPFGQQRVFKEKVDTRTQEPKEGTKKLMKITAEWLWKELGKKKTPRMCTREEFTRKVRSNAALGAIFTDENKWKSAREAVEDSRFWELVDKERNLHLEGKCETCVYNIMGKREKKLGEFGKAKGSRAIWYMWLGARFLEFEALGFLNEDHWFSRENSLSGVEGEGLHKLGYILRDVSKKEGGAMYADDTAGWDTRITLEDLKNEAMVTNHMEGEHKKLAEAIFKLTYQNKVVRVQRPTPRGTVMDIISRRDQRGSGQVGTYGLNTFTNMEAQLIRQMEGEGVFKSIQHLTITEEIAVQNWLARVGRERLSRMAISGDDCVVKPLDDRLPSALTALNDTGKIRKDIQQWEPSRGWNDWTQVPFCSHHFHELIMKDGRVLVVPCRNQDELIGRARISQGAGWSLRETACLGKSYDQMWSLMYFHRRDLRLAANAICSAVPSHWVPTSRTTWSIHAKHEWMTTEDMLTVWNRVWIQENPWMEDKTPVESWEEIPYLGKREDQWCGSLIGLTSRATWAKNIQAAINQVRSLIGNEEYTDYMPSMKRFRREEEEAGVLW

[22] = molecular target: T5, Short transient receptor potential channel 4 (Mus musculus, UniProt Q9QUQ5); test: mouse TRPC4 channel inhibitors, dose response, cell-based, HEK293 TRPC4/mu-opioid, Fluo-4 calcium (AID 434942); assay type: functional;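 also: potency of inhibitors blocking the TRPC4 calcium response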
T5 sequence (Q9QUQ5 whole entry): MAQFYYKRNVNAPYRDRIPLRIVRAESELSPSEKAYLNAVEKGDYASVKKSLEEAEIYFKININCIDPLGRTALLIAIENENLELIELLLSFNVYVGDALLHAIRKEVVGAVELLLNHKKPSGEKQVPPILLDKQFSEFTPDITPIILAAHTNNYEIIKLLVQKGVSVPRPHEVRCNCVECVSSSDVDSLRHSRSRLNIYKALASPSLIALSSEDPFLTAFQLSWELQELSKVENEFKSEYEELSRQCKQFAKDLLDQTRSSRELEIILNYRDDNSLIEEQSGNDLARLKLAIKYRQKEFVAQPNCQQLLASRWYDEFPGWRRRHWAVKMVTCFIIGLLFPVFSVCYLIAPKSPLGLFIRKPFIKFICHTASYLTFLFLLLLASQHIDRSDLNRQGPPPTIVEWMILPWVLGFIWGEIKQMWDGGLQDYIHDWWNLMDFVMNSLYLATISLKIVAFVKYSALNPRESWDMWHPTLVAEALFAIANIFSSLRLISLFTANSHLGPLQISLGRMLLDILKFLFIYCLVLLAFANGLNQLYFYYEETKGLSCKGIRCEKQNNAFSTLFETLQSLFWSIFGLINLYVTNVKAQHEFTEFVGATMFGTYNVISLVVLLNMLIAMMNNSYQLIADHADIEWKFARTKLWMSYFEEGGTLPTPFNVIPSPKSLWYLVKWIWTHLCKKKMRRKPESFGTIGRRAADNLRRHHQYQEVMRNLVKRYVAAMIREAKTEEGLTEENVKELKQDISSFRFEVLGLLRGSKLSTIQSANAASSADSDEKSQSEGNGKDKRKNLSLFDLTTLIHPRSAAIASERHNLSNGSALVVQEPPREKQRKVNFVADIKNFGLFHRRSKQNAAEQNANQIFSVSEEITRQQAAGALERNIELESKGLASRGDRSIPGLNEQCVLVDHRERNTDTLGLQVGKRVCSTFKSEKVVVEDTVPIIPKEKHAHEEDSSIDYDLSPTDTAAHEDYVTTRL

Sequence of CAAX prenyl protease 2 (Homo sapiens, UniProt Q9Y256) (Q9Y256 whole entry): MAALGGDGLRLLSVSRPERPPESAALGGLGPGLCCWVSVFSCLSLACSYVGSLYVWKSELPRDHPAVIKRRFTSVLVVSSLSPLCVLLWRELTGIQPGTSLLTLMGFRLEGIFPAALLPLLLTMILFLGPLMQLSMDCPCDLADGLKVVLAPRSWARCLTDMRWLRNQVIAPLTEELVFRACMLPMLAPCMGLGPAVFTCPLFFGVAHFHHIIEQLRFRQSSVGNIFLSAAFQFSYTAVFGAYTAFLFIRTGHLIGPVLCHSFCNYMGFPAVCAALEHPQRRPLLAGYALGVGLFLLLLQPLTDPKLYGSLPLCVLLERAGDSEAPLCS

Structure (SMILES): O=C(COc1ccc2ccc(=O)oc2c1)N1CCC(C(=O)O)(c2ccccc2)CC1
- AC50 (CAAX prenyl protease 2 [1]): 98.6 µM (active)

Structure (SMILES): CCOC(=O)c1cc(-c2ccc(OC)cc2)[nH]n1
- AC50 (A-375 [2]): > 35 µM (active)
- AC50 (A-375 [3]): > 35 µM (active)

Structure (SMILES): CCCCCCOc1ccc(N2C(=O)CC(SC(=N)N/N=C(\C)c3cccs3)C2=O)cc1 (stereo not drawn)
- IC50 (Cysteine protease ATG4B): 9.46 µM (active)
- IC50 (Phospholipase A2): 5.58 µM (active)

Structure (SMILES): O=C(O)Cc1nn(Cc2ccc(Cl)cc2)c(=O)c2ccccc12
- IC50 (HEK293 [4]): > 67.5 µM (inactive)
- IC50 [5]: > 67.5 µM (inactive)

Structure (SMILES): COc1ccc(C(=O)CCNc2ccc(F)cc2)cc1
- AC50 (A-375 [2]): > 35 µM (active)
- EC50 (cells [6]): > 350 µM (not active)
- AC50 (A-375 [3]): > 35 µM (active)

Structure (SMILES): O=C(CCc1ccccc1)NC(c1cccs1)c1cc(Cl)c2cccnc2c1O (stereo not drawn)
- EC50 [7]: 4.12 µM (inconclusive)
- AC50 [8]: 16.9 µM (active)
- IC50 [9]: 1.78 µM (active)
- EC50 [10]: 0.536 µM (active)
- IC50 [11]: 1.77 µM (active)
- EC50 [12]: 9.65 µM (active)
- AC50 (HEK293 [13]): 9.35 µM (active)
- EC50 (cells [14]): > 350 µM (not active)
- EC50 [15]: 0.219 µM (active)
- EC50 (cells [6]): 9.12 µM (active)
- AC50 [16]: 10.2 µM (active)
- EC50 [17]: 1.61 µM (active)

Structure (SMILES): COc1ccccc1CNC(=O)c1ccccc1N
- AC50 (CAAX prenyl protease 2 [18]): 6.36 µM (active)
- AC50 (CAAX prenyl protease 2 [1]): 4.31 µM (active)
- AC50 (Trypsin): 6.1 µM (active)

Structure (SMILES): Cc1ccc(/C=N/NC(=S)N2CCOCC2)cc1
- IC50 [19]: 8.6 µM (active)
- AC50 [20]: 112 µM (active)
- EC50 (Beta-galactosidase): > 40 µM (inactive)

Structure (SMILES): CC(=O)c1csc(COc2ccc(Cl)cc2)n1
- IC50 (HEK293 [4]): > 67.6 µM (inactive)
- IC50 [5]: > 67.6 µM (inactive)

Structure (SMILES): CCCCCCCCCCCCCCC[C@H](O)[C@H](N)CO
- AC50 [21]: 35.5 µM (inconclusive)

Structure (SMILES): O=C(CNC(=O)c1ccc(Br)o1)OCC(=O)c1cccc([N+](=O)[O-])c1
- IC50 [19]: 27.3 µM (not active)
- EC50 (Beta-galactosidase): > 40 µM (inactive)

Structure (SMILES): Cc1ccc(/C=C2\SC(=S)N(C(Cc3ccccc3)C(=O)O)C2=O)cc1 (stereo not drawn)
- IC50 (Cysteine protease ATG4B): 9.14 µM (active)
- IC50 (Genome polyprotein): 39.1 µM (active)
- IC50 (Phospholipase A2): 10.6 µM (active)
- EC50 [22]: 5.96 µM (active)

Structure (SMILES): CC/C=C/C/C=C/C/C=C/CCCCCCCC(=O)OCC
- AC50 [21]: 28.2 µM (inconclusive)
